Source: patent US20160047819A1, “METHOD FOR DIAGNOSING VAGINAL INFECTIONS” (priority 2013, published 2016)

Test system: vaginal proteome (human proteins in vaginal fluid)
Assay: MS/MS proteomic analysis of vaginal fluid pools, BV-affected women before (BV) and after rifaximin/placebo treatment: human proteins
Assay type: in vivo
Procedure: Proteomic analysis was performed on 9 pools of vaginal isolates, grouped according to the status of the BV infection: • H pool (from 41 healthy women); BV pool (from 39 BV-affected women); • A-R pool (from 2 women who were in remission after rifaximin treatment-group A); • A-N pool (from 8 women who were not in remission after rifaximin treatment-group A); • B-R pool (from 5 women who were in remission after rifaximin treatment-group B); • B-N pool (from 5 women who were not in remission after rifaximin treatment-group B); • C-R pool (from 4 women who were in remission after rifaximin treatment-group C); • C-N (from 5 women who were not in remission after rifaximin treatment-group C); • D-N (from 10 women who were not in remission after placebo treatment-group D). Scheme of the vaginal fluids collected for testing the diagnostic method is represented in FIG. 1.
In these figures are reported the peptides in the fractionated pools of healthy women, women affected by BV and peptides of women treated with rifaximin. The treatment with rifaximin was at dosage of 100 mg/day for 5 days; (remission, A-R; no remission, A-N), 25 mg/5 days (remission, B-R; no remission, B-N), 100 mg/2 days (remission, C-R; no remission, C-N), and placebo for 5 days (D-N). Two types of comparisons were carried out: (i) between fractionated pools of proteins from vaginal fluid of healthy women (HF) versus fractionated pool of proteins from vaginal fluid of women affected by bacterial vaginosis (BVF); (ii) between whole pools of proteins from vaginal fluid of women affected by BV treated by administering different doses of rifaximin or placebo before (BV) and after (A-R, A-N, B-R, B-N, C-R, C-N, D-N) treatment. Fractioned pools of proteins are obtained, e.g., by separating the proteins by separation on membrane filtration with different membrane porosity, prior to MS/MS analysis.
Nine volumes of acetone: HCl (10:1) were added to the supernatant of the vaginal rinsing and proteins were precipitated by centrifuging at 12000 g for 10 min. The protein pellet was dissolved in 1 mL of 70% ethanol and the sample was spun at 12000 g for 10 min. One mL of acetone was added and the proteins were further precipitated by centrifugation at 12000 g for 5 min. After removing supernatant, pellet was dried by SpeedVac concentrator (Thermo Savant ISS110, Thermo Fisher Scientific, Waltham, Mass.) and then stored at −20° C.
Protein extract was quantified using the 2-D Quant Kit (GE Healthcare, Uppsala, Sweden) according to the manufacturer's instructions.
Patients who were diagnosed for BV at the study visit V1 were included in a multicentre, double-blind, randomised, placebo-controlled study (EudraCT: 2009-011826-32), that was performed to compare the efficacy of different doses of rifaximin vaginal tablets versus placebo for the treatment of BV. The patients underwent a randomisation visit and were distributed into 4 treatment groups: group A received 100 mg rifaximin vaginal tablet once daily for 5 days (n=10), group B received 25 mg rifaximin vaginal tablet once daily for 5 days (n=10), group C received 100 mg rifaximin vaginal tablet once daily for the first 2 days and placebo vaginal tablet for the remaining 3 days (n=9), group D received placebo vaginal tablet once daily for 5 days (n=10). Study medication was administered intra-vaginally at bedtime. After 7 to 10 days from the end of the therapy a follow-up visit (V3) was performed. Remission was evaluated at V3 according to Amsel's criteria (<3) and Gram stain Nugent score (≦3) (Table 1).
Standardized vaginal rinsings with 2 mL of saline were collected for analysis at V1 and V3 by flushing and re-aspirating the fluid through a 22 Gauge needle in the left, central and right upper vaginal vaults. The vaginal rinsings were subsequently stored at −80° C. until use.
MS/MS analysis was carried out for H and BV pools and for the whole BV, A-R, A-N, B-R, B-N, C-R, C-N and D-N pools containing 50 μg of protein each. […]

## CO[C@H]1/C=C/O[C@@]2(C)Oc3c(C)c(O)c4c(O)c(c5c(nc6cc(C)ccn65)c4c3C2=O)NC(=O)/C(C)=C\C=C\[C@H](C)[C@H](O)[C@@H](C)[C@@H](O)[C@@H](C)[C@H](OC(C)=O)[C@@H]1C [rifaximin]
Pool A-R after treatment
  Ratio X/H Zyxin (Q15942): −3.2
Pool B-N after treatment
  Ratio X/H Sciellin (O95171): 0.0
  Ratio X/H Semenogelin-2 (Q02383): −2.3
  Ratio X/H Serine protease 27 (Q9BQR3): 0.0
  Ratio X/H Serine/threonine-protein kinase ULK1 (O75385): 0.0
  Ratio X/H Serotransferrin (P02787): 0.0
  Ratio X/H Serpin B3 (P29508): 1.8
  Ratio X/H Serpin B4 (P48594): 1.5
  Ratio X/H Serpin B5 (P36952): 0.0
  Ratio X/H Serpin B6 (P35237): 0.0
  Ratio X/H Serpin B9 (P50453): 0.0
  Ratio X/H Serpin B12 (Q96P63): −1.8
  Ratio X/H Serpin B13 (Q9UIV8): 1.5
  Ratio X/H Serum albumin (P02768): 0.0
  Ratio X/H Serum paraoxonase/arylesterase 1 (P27169): 1.7
  Ratio X/H Small proline-rich protein 3 (Q9UBC9): 0.0
  Ratio X/H Stanniocalcin-1 (P52823): 1.7
  Ratio X/H Sulfhydryl oxidase 1 (O00391): 0.0
  Ratio X/H Superoxide dismutase [Cu—Zn] (P00441): 0.0
  Ratio X/H Suprabasin (Q6UWP8): 7.6
  Ratio X/H Syntenin-1 (O00560): 2.6
  Ratio X/H Talin-1 (Q9Y490): 0.0
  Ratio X/H Tctex1 domain-containing protein 2 (Q8WW35): −25.1
  Ratio X/H Teneurin-3 (Q9P273): 12.3
  Ratio X/H Thioredoxin (P10599): 1.5
  Ratio X/H Transaldolase (P37837): 1.6
  Ratio X/H Transmembrane protease serine 11D (O60235): −1.6
  Ratio X/H Transthyretin (P02766): 0.0
  Ratio X/H Tumor protein D54 (O43399): 0.0
  Ratio X/H UTP--glucose-1-phosphate uridylyltransferase (Q16851): 0.0
  Ratio X/H UV excision repair protein RAD23 homolog B (P54727): −1.6
  Ratio X/H Versican core protein (P13611): −1.7
  Ratio X/H Vinculin (P18206): 1.5
  Ratio X/H Vitamin D-binding protein (P02774): −2.0
  Ratio X/H Werner syndrome ATP-dependent helicase (Q14191): 131.2
  Ratio X/H Zinc finger protein 185 (O15231): 0.0
  Ratio X/H Zinc finger protein 335 (Q9H4Z2): 0.0
  Ratio X/H Zinc-alpha-2-glycoprotein (P25311): 0.0
  Ratio X/H Zyxin (Q15942): 0.0
Pool B-R after treatment
  Ratio X/H Sciellin (O95171): 0.0
  Ratio X/H Semenogelin-2 (Q02383): 5.9
  Ratio X/H Serine protease 27 (Q9BQR3): −2.3
  Ratio X/H Serine/threonine-protein kinase ULK1 (O75385): −4.4
  Ratio X/H Serotransferrin (P02787): −3.9
  Ratio X/H Serpin B3 (P29508): 4.3
  Ratio X/H Serpin B4 (P48594): 0.0
  Ratio X/H Serpin B5 (P36952): −4.7
  Ratio X/H Serpin B6 (P35237): 0.0
  Ratio X/H Serpin B9 (P50453): −5.6
  Ratio X/H Serpin B12 (Q96P63): −1.9
  Ratio X/H Serpin B13 (Q9UIV8): 0.0
  Ratio X/H Serum albumin (P02768): −13.2
  Ratio X/H Serum paraoxonase/arylesterase 1 (P27169): 0.0
  Ratio X/H Small proline-rich protein 3 (Q9UBC9): 6.6
  Ratio X/H Stanniocalcin-1 (P52823): 113.1
  Ratio X/H Sulfhydryl oxidase 1 (O00391): 1.6
  Ratio X/H Superoxide dismutase [Cu—Zn] (P00441): −1.5
  Ratio X/H Suprabasin (Q6UWP8): 15.1
  Ratio X/H Syntenin-1 (O00560): −3.1
  Ratio X/H Talin-1 (Q9Y490): −1.6
  Ratio X/H Tctex1 domain-containing protein 2 (Q8WW35): 4.2
  Ratio X/H Teneurin-3 (Q9P273): −2.3
  Ratio X/H Thioredoxin (P10599): 3.1
  Ratio X/H Transaldolase (P37837): −1.7
  Ratio X/H Transmembrane protease serine 11D (O60235): 2.6
  Ratio X/H Transthyretin (P02766): −4.7
  Ratio X/H Tumor protein D54 (O43399): 2.2
  Ratio X/H UTP--glucose-1-phosphate uridylyltransferase (Q16851): 0.0
  Ratio X/H UV excision repair protein RAD23 homolog B (P54727): −2.2
  Ratio X/H Uronyl 2-sulfotransferase (Q9Y2C2): 2.1
  Ratio X/H Versican core protein (P13611): 2.6
  Ratio X/H Vinculin (P18206): 0.0
  Ratio X/H Vitamin D-binding protein (P02774): −17.8
  Ratio X/H Werner syndrome ATP-dependent helicase (Q14191): 750.5
  Ratio X/H Zinc finger protein 185 (O15231): 5.8
  Ratio X/H Zinc finger protein 335 (Q9H4Z2): −1.6
  Ratio X/H Zinc-alpha-2-glycoprotein (P25311): −9.4
  Ratio X/H Zyxin (Q15942): −5.1
Pool C-N after treatment
  Ratio X/H Sciellin (O95171): 0.0
  Ratio X/H Semenogelin-2 (Q02383): −1.8
  Ratio X/H Serine protease 27 (Q9BQR3): 0.0
  Ratio X/H Serine/threonine-protein kinase ULK1 (O75385): −1.7
  Ratio X/H Serotransferrin (P02787): −1.5
  Ratio X/H Serpin B3 (P29508): 1.6
  Ratio X/H Serpin B4 (P48594): 0.0
  Ratio X/H Serpin B5 (P36952): −2.6
  Ratio X/H Serpin B6 (P35237): 0.0
  Ratio X/H Serpin B9 (P50453): 0.0
  Ratio X/H Serpin B12 (Q96P63): 0.0
  Ratio X/H Serpin B13 (Q9UIV8): 0.0
  Ratio X/H Serum albumin (P02768): −1.6
  Ratio X/H Serum paraoxonase/arylesterase 1 (P27169): 1.5
  Ratio X/H Small proline-rich protein 3 (Q9UBC9): 1.7
  Ratio X/H Stanniocalcin-1 (P52823): 4.0
  Ratio X/H Sulfhydryl oxidase 1 (O00391): 0.0
  Ratio X/H Superoxide dismutase [Cu—Zn] (P00441): 0.0
  Ratio X/H Suprabasin (Q6UWP8): 3.9
  Ratio X/H Syntenin-1 (O00560): 0.0
  Ratio X/H Talin-1 (Q9Y490): 0.0
  Ratio X/H Tctex1 domain-containing protein 2 (Q8WW35): −13.6
  Ratio X/H Teneurin-3 (Q9P273): 10.2
  Ratio X/H Thioredoxin (P10599): 0.0
  Ratio X/H Transaldolase (P37837): −2.2
  Ratio X/H Transmembrane protease serine 11D (O60235): 0.0
  Ratio X/H Transthyretin (P02766): −1.8
  Ratio X/H Tumor protein D54 (O43399): 0.0
  Ratio X/H UTP--glucose-1-phosphate uridylyltransferase (Q16851): 0.0
  Ratio X/H UV excision repair protein RAD23 homolog B (P54727): −1.5
  Ratio X/H Uronyl 2-sulfotransferase (Q9Y2C2): −917.5
  Ratio X/H Versican core protein (P13611): 0.0
  Ratio X/H Vinculin (P18206): 0.0
  Ratio X/H Vitamin D-binding protein (P02774): 0.0
  Ratio X/H Werner syndrome ATP-dependent helicase (Q14191): 12.4
  Ratio X/H Zinc finger protein 185 (O15231): 1.5
  Ratio X/H Zinc finger protein 335 (Q9H4Z2): 0.0
  Ratio X/H Zinc-alpha-2-glycoprotein (P25311): 0.0
  Ratio X/H Zyxin (Q15942): 2.0
Pool C-R after treatment
  Ratio X/H Sciellin (O95171): 0.0
  Ratio X/H Semenogelin-2 (Q02383): 0.0
  Ratio X/H Serine protease 27 (Q9BQR3): −1.5
  Ratio X/H Serine/threonine-protein kinase ULK1 (O75385): −7.4
  Ratio X/H Serotransferrin (P02787): 0.0
  Ratio X/H Serpin B3 (P29508): 2.6
  Ratio X/H Serpin B4 (P48594): 0.0
  Ratio X/H Serpin B5 (P36952): 2.0
  Ratio X/H Serpin B6 (P35237): −2.2
  Ratio X/H Serpin B9 (P50453): −6.6
  Ratio X/H Serpin B12 (Q96P63): −1.7
  Ratio X/H Serpin B13 (Q9UIV8): 0.0
  Ratio X/H Serum albumin (P02768): −2.1
  Ratio X/H Serum paraoxonase/arylesterase 1 (P27169): 0.0
  Ratio X/H Small proline-rich protein 3 (Q9UBC9): 4.4
  Ratio X/H Stanniocalcin-1 (P52823): 13.3
  Ratio X/H Sulfhydryl oxidase 1 (O00391): −1.6
  Ratio X/H Superoxide dismutase [Cu—Zn] (P00441): 0.0
  Ratio X/H Suprabasin (Q6UWP8): 14.4
  Ratio X/H Syntenin-1 (O00560): −2.3
  Ratio X/H Talin-1 (Q9Y490): 0.0
  Ratio X/H Tctex1 domain-containing protein 2 (Q8WW35): 0.0
  Ratio X/H Teneurin-3 (Q9P273): 0.0
  Ratio X/H Thioredoxin (P10599): 0.0
  Ratio X/H Transaldolase (P37837): 2.4
  Ratio X/H Transmembrane protease serine 11D (O60235): 0.0
  Ratio X/H Transthyretin (P02766): 0.0
  Ratio X/H Tumor protein D54 (O43399): 0.0
  Ratio X/H UTP--glucose-1-phosphate uridylyltransferase (Q16851): 0.0
  Ratio X/H UV excision repair protein RAD23 homolog B (P54727): −2.2
  Ratio X/H Uronyl 2-sulfotransferase (Q9Y2C2): −7.7
  Ratio X/H Versican core protein (P13611): 0.0
  Ratio X/H Vinculin (P18206): 0.0
  Ratio X/H Vitamin D-binding protein (P02774): 0.0
  Ratio X/H Werner syndrome ATP-dependent helicase (Q14191): 209.6
  Ratio X/H Zinc finger protein 185 (O15231): 1.8
  Ratio X/H Zinc finger protein 335 (Q9H4Z2): 0.0
  Ratio X/H Zinc-alpha-2-glycoprotein (P25311): 0.0
  Ratio X/H Zyxin (Q15942): 0.0
